Experimental data: US8114895B2, “Use of bipyridine compound ‘Caerulomycin A’ derivatives and analogs thereof as immunosuppressive agents” (Council of Science and Industrial Research, priority 2005, dated 2012)

Key:
[1] = Funk and Divekar 1959; cited from earlier work
[2] = tested on: CD4^+ T cells; experiment: Proliferation of CD4+ T cells obtained from antigen-primed animals; assay type: cell-based; conditions: CD4+ T cells from OVA-FCA injected mice, stimulated with antigen-pulsed γ-irradiated splenocytes
Method: A single cell suspension of mice splenocytes obtained from OVA-CFA primed mice. The red blood cells were depleted by treatment with hemolytic Gey's solution. The adherent cells were removed by plating onto plastic Petri plates for 2 h at 37° C. and 7% CO2. The non-adherent cells were loaded (1×10^6 cells/ml) onto the nylon wool column and incubated for 90 min at 37° C. After the incubation period, warm RPMI was passed into the column to elute T lymphocytes. The T cells were washed with RPMI and incubated with anti-Mac3 (TIB-168), anti-IA^d (MKD6), anti-dendritic cell (TIB-227), anti-IgM and anti-CD8 Abs for 45 min at 4° C. […] The purity of the cells was analyzed by flow-cytometry of the cells stained with anti-CD3 and CD4 Abs. […]
Examples establishing the role of Caerulomycin A [isolated from a novel species of Actinoalloteichus] in inducing immunosuppression based on the following: • Splenocytes of BALB/c mice were stimulated with either ConA (1 μg/ml and 2 μg/ml) or LPS (5 μg/ml and 10 μg/ml) and were cultured with different concentrations of Caerulomycin A (0.0003-0.1 μg/ml). […] Radioactivity incorporated was measured by liquid scintillation counting. • Antigen ovalbumin (100 μg/ml) emulsified in Freund's complete adjuvant was injected in a group consisting of 5 BALB/c mice. […] Radioactivity incorporated was measured by liquid scintillation. […]

[3] = tested on: calcium dependent pathway; experiment: Proliferation by the calcium dependent (PMA+Lonomycin) pathway; assay type: cell-based; conditions: 48 h
Method: Cells were seeded at 5×10^4 cells/well in flat-bottom 96-well plates. The various stimuli and Caerulomycin A were added at the initiation of the cultures. After 48 h, [^3H]-thymidine (1 μCi/well) was added, and its incorporation was measured 12 h later.

COc1cc(/C=N/O)nc(-c2ccccn2)c1 [Caerulomycin A, (E)-4-methoxy-2,2′-bipyridine-6-carbaldehyde oxime]
antibacterial activity [1]: mild antibacterial activity | antifungal activity [1]: strong antifungal activity | proliferation of antigen stimulated CD4+ T cells [2]: significantly suppressed the proliferation | proliferation of calcium dependent pathway [3]: significantly inhibited the proliferation
